Measurements reported in patent publication US9303019B2, “Amino-pyrroline derivatives, and use thereof in the prevention and/or treatment of metabolic syndrome” (UNIVERSITE DE STRASBOURG, priority 2012, dated 2016).
pKi: −log10 of the molar value.

Molecular target: I1 receptor (Homo sapiens, UniProt Q9Y2I1)
Test: Specific binding assay of the I1 receptor on human platelets with [125I]LNP 911
Experimental: Binding assays were performed at 37° C. using [^125I]LNP 911 as radioligand following the general procedure described but adapted to washed whole platelets (Greney, H.; Urosevic, D.; Schann, S.; Dupuy, L.; Bruban, V.; Ehrhardt, J,-D.; Bousquet, P.; Dontenwill, M. [^125I]2-(2-Chloro-4-iodo-phenylamino)-5-methyl-pyrroline (LNP911), a High-Affinity Radioligand Selective for I1 Imidazoline Receptors. Mol. Pharmacol. 2002, 62, 181-191).
Incubation was initiated through the addition of 900 to 950 μl of platelet suspension at a concentration of 500000/μl in a final volume of 1 ml Tyrode albumin and was performed at 37° C. for 5 min (equilibrium conditions). The competitive assays were conducted using a single concentration of radioligand ([…], 200 000 cpm), in the presence of increasing concentrations of suitable non-labelled ligand. Non-specific binding was determined by the binding of [^125I]LNP 911 in the presence of 100 nM of non-labelled LNP 911 and represented about 10% of total radioactivity when […] of [^125I]LNP 911 were used.
The reaction was halted by rapid vacuum filtration through GF/C fibre glass filters followed by five rapid washings of the filters with 3 ml of ice-cold Tyrode ([…], pH 7.35). Radioactivity was measured using a gamma counter (Wallac 1410).
The competitive assays were analyzed by non-linear regression using the GraphPad programme.
Ki values were determined using the method described by Cheng and Prussof (Cheng, Y. C.; Prusoff, W. H. Relationship between the Inhibition Constant (Ki) and the Concentration of Inhibitor which causes 50 percent Inhibition (I50) of an Enzymatic Reaction. Biochem. Pharmacol. 1973, 22, 3099-3108).

I1 receptor, sequence (Q9Y2I1 2-1504 limits assumed): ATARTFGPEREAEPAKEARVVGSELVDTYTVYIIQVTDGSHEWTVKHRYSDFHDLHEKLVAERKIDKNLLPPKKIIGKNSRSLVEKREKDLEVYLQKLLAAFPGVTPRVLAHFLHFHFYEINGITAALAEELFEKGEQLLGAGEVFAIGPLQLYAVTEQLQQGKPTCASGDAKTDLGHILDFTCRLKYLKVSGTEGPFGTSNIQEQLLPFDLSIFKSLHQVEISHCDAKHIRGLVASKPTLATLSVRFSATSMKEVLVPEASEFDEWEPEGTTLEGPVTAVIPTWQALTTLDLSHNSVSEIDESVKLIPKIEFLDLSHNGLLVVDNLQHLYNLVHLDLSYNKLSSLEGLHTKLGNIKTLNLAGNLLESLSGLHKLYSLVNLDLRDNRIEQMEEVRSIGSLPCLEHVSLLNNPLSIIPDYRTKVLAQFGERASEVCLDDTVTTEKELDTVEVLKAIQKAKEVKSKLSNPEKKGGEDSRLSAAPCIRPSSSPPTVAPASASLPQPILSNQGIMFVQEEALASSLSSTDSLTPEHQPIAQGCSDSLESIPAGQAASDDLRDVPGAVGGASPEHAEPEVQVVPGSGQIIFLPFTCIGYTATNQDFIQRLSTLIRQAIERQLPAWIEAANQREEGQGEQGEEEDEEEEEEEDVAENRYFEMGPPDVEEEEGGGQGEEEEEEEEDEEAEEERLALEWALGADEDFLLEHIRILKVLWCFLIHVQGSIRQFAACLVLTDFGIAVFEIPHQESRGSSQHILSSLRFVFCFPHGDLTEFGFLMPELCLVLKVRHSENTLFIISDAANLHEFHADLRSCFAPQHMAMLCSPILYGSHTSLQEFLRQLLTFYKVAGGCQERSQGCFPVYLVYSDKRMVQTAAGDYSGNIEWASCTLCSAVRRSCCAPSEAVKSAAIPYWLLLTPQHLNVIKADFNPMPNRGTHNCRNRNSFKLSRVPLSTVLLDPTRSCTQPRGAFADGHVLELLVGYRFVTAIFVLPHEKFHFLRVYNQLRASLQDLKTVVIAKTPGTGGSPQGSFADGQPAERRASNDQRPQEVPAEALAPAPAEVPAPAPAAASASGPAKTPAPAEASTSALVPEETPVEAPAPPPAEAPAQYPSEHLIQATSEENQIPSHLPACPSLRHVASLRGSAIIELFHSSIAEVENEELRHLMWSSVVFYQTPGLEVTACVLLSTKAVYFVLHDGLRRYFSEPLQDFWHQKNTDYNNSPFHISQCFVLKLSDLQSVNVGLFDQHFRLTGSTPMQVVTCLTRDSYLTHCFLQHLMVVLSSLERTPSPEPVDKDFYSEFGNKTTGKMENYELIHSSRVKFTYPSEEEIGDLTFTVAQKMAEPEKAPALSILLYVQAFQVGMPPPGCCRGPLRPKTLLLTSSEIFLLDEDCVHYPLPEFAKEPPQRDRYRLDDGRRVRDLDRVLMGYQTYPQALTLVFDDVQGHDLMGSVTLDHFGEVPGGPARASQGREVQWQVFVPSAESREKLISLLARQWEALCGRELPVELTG

Cc1c(Cl)cccc1NC1=NCC(C)C1.Cl (stereo not shown) [Compound 1, (3-Chloro-2-methyl-phenyl)-(4-methyl-4,5-dihydro-3H-pyrrol-2-yl)-amine hydrochloride]
pKi: 8.09
